Laboratory results taken from patent publication US6777428B1, “5-HT1f agonist” (Eli Lilly and Company, priority 1999, dated 2004).
Structures can show the parent of a compound that is named as a salt.

SMILES	melting point [°C]
CN1CCC(C(=O)c2cccc(NC(=O)c3ccc(F)cc3I)c2)CC1.Cl	> 250
O=C(Nc1cccc(C(=O)C2CCNCC2)c1)c1ccc(F)cc1 (as salt: hydrochloride)	> 225
Cl.Nc1cccc(C(=O)C2CCNCC2)c1	208 to 210
CN1CCC(C(=O)c2cccc(NC(=O)c3ccc(O)cc3)c2)CC1 (as salt: hydrochloride)	> 200
CN1CCC(C(=O)c2cccc(NC(=O)c3ccco3)c2)CC1 (as salt: hydrochloride)	> 200
CN1CCC(C(=O)c2cccc(NC(=O)c3ccncc3)c2)CC1 (as salt: hydrochloride)	> 200
CN1CCC(C(=O)c2cccc(NC(=O)c3ccc(F)cc3F)c2)CC1 (as salt: hydrochloride)	181 to 183
